# Results taken from US4156724A, “N-acylamino-alpha-arylacetamido cephalosporins and antibacterial compositions and methods containing them” (Sumitomo Chemical Company, Limited, priority 1974, dated 1979).
# Where two headings read alike, the source gives them in different places.
# Legend:
# Assay type in all cases: cell-based
# [1] = tested on: Staphylococcus aureus 209 P; assay: Minimum Inhibitory Concentration, Staphylococcus aureus 209 P; details: Staphylococcus aureus 209 P; for MIC: read-out: Minimum Inhibitory Concentration
# Experimental: (§1) anti-microbial activity tests were carried out on the compounds obtained in the Examples.
# [2] = tested on: Proteus vulgaris HX 19; assay: Minimum Inhibitory Concentration, Proteus vulgaris HX 19; details: Proteus vulgaris HX 19; for MIC: HX19, read-out: Minimum Inhibitory Concentration
# Experimental: as §1
# [3] = tested on: Klebsiella pneumoniae 602; assay: Minimum Inhibitory Concentration, Klebsiella pneumoniae 602; details: for MIC: Klebsiella pneumoniae, 602, Klebsiella pneumoniae 602, read-out: Minimum Inhibitory Concentration; for Minimum Inhibitory Concentration: Klebsiella pneumoniae 602
# Experimental: as §1
# [4] = tested on: Enterobacter aerogeneus No. 75; assay: Minimum Inhibitory Concentration, Enterobacter aerogeneus No. 75; details: Enterobacter aerogeneus No. 75; for MIC: read-out: Minimum Inhibitory Concentration
# Experimental: as §1
# [5] = tested on: Serratia No. 72; assay: Minimum Inhibitory Concentration, Serratia No. 72
# Experimental: as §1
# [6] = tested on: Escherichia coli NIHJ; assay: Minimum Inhibitory Concentration, Escherichia coli NIHJ; details: Escherichia coli NIHJ; for MIC: read-out: Minimum Inhibitory Concentration
# Experimental: as §1
# [7] = tested on: Pseudomonas aeruginosa 104; assay: Minimum Inhibitory Concentration, Pseudomonas aeruginosa 104; details: Pseudomonas aeruginosa 104; for MIC: read-out: Minimum Inhibitory Concentration
# Experimental: as §1
# [8] = tested on: Staphylococcus aureus FS 289; assay: Minimum Inhibitory Concentration, Staphylococcus aureus FS 289
# Experimental: as §1
# *Staphylococcus aureus FS 289: strain resistant to penicillin
# [9] = FS289, Staphylococcus aureus FS 289, strain resistant to penicillin, read-out: Minimum Inhibitory Concentration
# [10] = Staphylococcus aureus FS 289, strain resistant to penicillin
MIC [1] [µg/mL],MIC [2] [µg/mL],MIC [3] [µg/mL],MIC [4] [µg/mL],MIC [5] [µg/mL],MIC [6] [µg/mL],MIC [7] [µg/mL],"MIC [8, 9] [µg/mL]",SMILES,Minimum Inhibitory Concentration [1] [µg/mL],Minimum Inhibitory Concentration [2] [µg/mL],Minimum Inhibitory Concentration [3] [µg/mL],Minimum Inhibitory Concentration [4] [µg/mL],Minimum Inhibitory Concentration [5] [µg/mL],Minimum Inhibitory Concentration [6] [µg/mL],Minimum Inhibitory Concentration [7] [µg/mL],"Minimum Inhibitory Concentration [8, 10] [µg/mL]","MIC ([8]; Staphylococcus aureus, FS289, read-out: Minimum Inhibitory Concentration) [µg/mL]"
1.56,0.39,3.13,6.25,50,3.13,6.25,6.25,"CC(=O)OCC1=C(C(=O)O)N2C(=O)C(NC(=O)[C@H](NC(=O)c3cnc4cccnc4c3O)c3ccc(N)cc3)C2SC1 (stereo partly drawn) [Example 50, 7-[D-α-(4-Hydroxy-1,5-naphthyridine-3-carboxyamido)-α-p-aminophenylacetamido]cephalosporanic Acid]",–,–,–,–,–,–,–,–,–
1.56,0.2,3.13,6.25,12.5,3.13,3.13,6.25,Cc1ccc2c(O)c(C(=O)N[C@@H](C(=O)N[C@@H]3C(=O)N4C(C(=O)O)=C(CSc5nnnn5C)CS[C@H]34)c3ccc(NC(N)=O)cc3)cnc2n1 [Example 26],–,–,–,–,–,–,–,–,–
0.39,0.2,12.5,25,> 200,12.5,6.25,3.13,"CC(=O)OCC1=C(C(=O)O)N2C(=O)C(NC(=O)[C@H](NC(=O)c3cnccc3O)c3ccc(O)cc3)C2SC1 (stereo partly drawn) [Example 113, 7-[D-α-(4-Hydroxypyridine-3-carbonamido)-α-p-hydroxyphenylacetamido]cephalosporanic Acid]",–,–,–,–,–,–,–,–,–
–,–,–,–,–,–,–,–,CC(=O)OCC1=C(C(=O)[O-])N2C(=O)C(NC(=O)C(NC(=O)c3cnc4cncnc4c3O)c3ccc(O)cc3)C2SC1.[Na+] (stereo not shown) [Example 141],0.78,0.78,6.25,12.5,50,6.25,6.25,6.25,–
0.78,0.2,1.56,6.25,12.5,3.13,3.13,6.25,CNc1nnc(SCC2=C(C(=O)O)N3C(=O)C(NC(=O)[C@H](NC(=O)c4cnc5cccnc5c4O)c4ccc(O)cc4)C3SC2)s1 (stereo partly shown) [Example 152],–,–,–,–,–,–,–,–,–
0.78,0.2,3.13,3.13,12.5,3.13,3.13,6.25,Nc1cccc(C(NC(=O)c2cnc3cccnc3c2O)C(=O)NC2C(=O)N3C(C(=O)O)=C(CSc4ccc(O)nn4)CSC23)c1 (stereo not shown) [Example 65],–,–,–,–,–,–,–,–,–
0.78,0.39,25,12.5,> 200,12.5,12.5,6.25,"Cc1nnc(SCC2=C(C(=O)O)N3C(=O)C(NC(=O)C(NC(=O)c4cnccc4O)c4ccc(CO)cc4)C3SC2)s1 (racemic) [Example 90, 7-[DL-α-(4-Hydroxypyridine-3carbonamido)-α -p-hydroxymethylphenylacetamido]-3-(2-methyl-1,3,4-thiadiazol-5-yl)thiomethyl-3-cephem-4-carboxylic Acid]",–,–,–,–,–,–,–,–,–
0.78,0.39,3.13,6.25,12.5,6.25,6.25,6.25,Cn1nnnc1SCC1=C(C(=O)O)N2C(=O)C(NC(=O)C(NC(=O)c3cnc4sccc4c3O)c3cccc(NC(N)=O)c3)C2SC1 (stereo not shown) [Example 43],–,–,–,–,–,–,–,–,–
0.39,0.2,12.5,25,100,12.5,6.25,6.25,CC(=O)OCC1=C(C(=O)O)N2C(=O)C(NC(=O)[C@H](NC(=O)c3cnccc3O)c3ccc(O)c(Cl)c3)C2SC1 (stereo partly shown) [Example 117],–,–,–,–,–,–,–,–,–
0.39,0.2,3.13,12.5,50,6.25,6.25,6.25,"Cn1nnnc1SCC1=C(C(=O)O)N2C(=O)[C@@H](NC(=O)[C@H](NC(=O)c3cnccc3O)c3ccc(NC(N)=O)cc3)[C@H]2SC1 [Example 13, 7-[D-α-(4-Hydroxypyridine-3-carboxyamido)-α-(p-ureidophenyl)acetamido]-3-(1-methyltetrazol-5-yl)-thiomethyl-3-cephem-4-carboxylic Acid]",–,–,–,–,–,–,–,–,–
1.56,0.2,3.13,12.5,12.5,3.13,6.25,6.25,O=C(O)C1=C(CSc2nnc(CO)s2)CSC2C(NC(=O)C(NC(=O)c3cnc4cccnc4c3O)c3ccc(CO)cc3)C(=O)N12 (stereo not shown) [Example 103],–,–,–,–,–,–,–,–,–
1.56,0.1,3.13,3.13,12.5,1.56,6.25,6.25,"Nc1cccc([C@@H](NC(=O)c2cnc3cccnc3c2O)C(=O)NC2C(=O)N3C(C(=O)O)=C(CSc4nncs4)CSC23)c1 (stereo partly drawn) [Example 64, 7-[D-α-(4-Hydroxy-1,5-naphthyridine-3-carbonamido)-α-m-aminophenylacetamido]-3-(1,3,4-thiadiazol-5-yl)thiomethyl-3-cephem-4-carboxylic acid]",–,–,–,–,–,–,–,–,–
0.78,0.39,12.5,12.5,50,12.5,12.5,6.25,CC(=O)OCC1=C(C(=O)O)N2C(=O)[C@@H](NC(=O)[C@H](NC(=O)c3nnc4ccccc4c3O)c3ccc(NC(N)=O)cc3)[C@H]2SC1 [Example 9],–,–,–,–,–,–,–,–,–
0.78,0.39,3.13,6.25,25,3.13,6.25,6.25,O=C(O)C1=C(CSc2ccc(O)nn2)CSC2C(NC(=O)[C@H](NC(=O)c3cnc4cccnc4c3O)c3ccc(O)c(Cl)c3)C(=O)N12 (stereo partly shown) [Example 149],–,–,–,–,–,–,–,–,–
–,–,–,–,–,–,–,–,CSc1cnc2c(O)c(C(=O)NC(C(=O)NC3C(=O)N4C(C(=O)[O-])=C(COC(C)=O)CSC34)c3cccc(O)c3)cnc2n1.[Na+] (stereo not shown) [Example 140],0.78,1.56,6.25,12.5,50,3.13,6.25,6.25,–
0.39,0.2,6.25,12.5,100,6.25,12.5,6.25,O=C(O)C1=C(CSc2ccc(O)nn2)CSC2C(NC(=O)C(NC(=O)c3cnccc3O)c3ccc(O)cc3)C(=O)N12 (stereo not shown) [Example 177],–,–,–,–,–,–,–,–,–
0.39,0.39,3.13,12.5,50,12.5,12.5,6.25,NC(=O)Nc1cccc(C(NC(=O)c2cnccc2O)C(=O)NC2C(=O)N3C(C(=O)O)=C(CSc4nnc(CO)s4)CSC23)c1 (stereo not shown) [Example 45],–,–,–,–,–,–,–,–,–
1.56,0.78,1.56,6.25,50,3.13,6.25,6.25,"CC(=O)OCC1=C(C(=O)O)N2C(=O)C(NC(=O)C(NC(=O)c3cnc4cccnc4c3O)c3ccc(CO)cc3)C2SC1 (racemic) [Example 89, 7-[DL-α-(4-Hydroxy-1,5-naphthyridine-3-carbonamido)-α-p-hydroxymethylphenylacetamido]cephalosporanic Acid]",–,–,–,–,–,–,–,–,–
0.39,0.39,1.56,12.5,25,6.25,6.25,12.5,Cn1nnnc1SCC1=C(C(=O)O)N2C(=O)C(NC(=O)C(NC(=O)c3cnc4scnc4c3O)c3ccc(O)cc3)C2SC1 (stereo not shown) [Example 158],–,–,–,–,–,–,–,–,–
0.78,0.1,3.13,3.13,12.5,3.13,3.13,6.25,Cn1nnnc1SCC1=C(C(=O)O)N2C(=O)C(NC(=O)C(NC(=O)c3cnc4ccc(O)nc4c3O)c3cccc(N)c3)C2SC1 (stereo not shown) [Example 77],–,–,–,–,–,–,–,–,–
0.78,0.1,1.56,3.13,12.5,3.13,3.13,6.25,Cn1nnc(SCC2=C(C(=O)O)N3C(=O)C(NC(=O)C(NC(=O)c4cnc5cccnc5c4O)c4ccc(N)cc4)C3SC2)n1 (stereo not shown) [Example 82],–,–,–,–,–,–,–,–,–
0.78,0.39,6.25,12.5,50,6.25,6.25,6.25,Cn1nnnc1SCC1=C(C(=O)O)N2C(=O)C(NC(=O)C(NC(=O)c3cnccc3O)c3ccc(O)c(O)c3)C2SC1 (stereo not shown) [Example 185],–,–,–,–,–,–,–,–,–

SMILES,MIC [1] [µg/mL],MIC [2] [µg/mL],MIC [3] [µg/mL],MIC [4] [µg/mL],MIC [5] [µg/mL],MIC [6] [µg/mL],MIC [7] [µg/mL],"MIC [8, 9] [µg/mL]",Minimum Inhibitory Concentration [1] [µg/mL],Minimum Inhibitory Concentration [2] [µg/mL],Minimum Inhibitory Concentration [3] [µg/mL],Minimum Inhibitory Concentration [4] [µg/mL],Minimum Inhibitory Concentration [5] [µg/mL],Minimum Inhibitory Concentration [6] [µg/mL],Minimum Inhibitory Concentration [7] [µg/mL],"Minimum Inhibitory Concentration [8, 10] [µg/mL]","MIC ([8]; Staphylococcus aureus, FS289, read-out: Minimum Inhibitory Concentration) [µg/mL]"
CN(C)c1ccc2ncc(C(=O)N[C@@H](C(=O)N[C@@H]3C(=O)N4C(C(=O)O)=C(CSc5cnn[nH]5)CS[C@H]34)c3ccc(NC(N)=O)cc3)c(O)c2n1 [Example 27],1.56,0.2,1.56,3.13,12.5,3.13,3.13,–,–,–,–,–,–,–,–,–,6.25
